Assay results published in patent publication EP1018299A2, “Plant treatment agents” (BAYER AG, priority 1992, dated 1994).

Test: UDOS (unilateral desorption from the outer surface): effect of accelerators on the mobility of 14C-labelled 2,4-D in isolated cuticles
Format: in vitro ADME, Citrus
Conditions: Abb. 11; for Zeitabhängigkeit der Effekte: effects increased with time; for Wirkungen (Effekt auf die Mobilität von 2,4-D): compared with Heptanol, Octanol, Nonanol and Decanol

SMILES | Zeitabhängigkeit der Effekte | Wirkungen (Effekt auf die Mobilität von 2,4-D)
CCCCCCCCCCCCO [Dodecanol] | stark zeitabhängig | deutlich niedriger
CCCCCCO [Hexanol] | stark zeitabhängig | deutlich niedriger
